Results published in ChEMBL document CHEMBL1201862, “PubChem BioAssay data set” (2004).
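Protocol summary: plate cells (96-well), add compound at 5 concentrations, incubate 48 h, interpolate endpoints linearly. Here, GI50 denotes the concentration required for 50% inhibition of growth.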 Activity calls are given as the source filed them. Rule as the data show it: active = GI50 up to about 1.1 µM and inactive = higher.

Key:
Assay in all cases: NCI-60 cell line screen, 48 h
OVCAR-8 = tested on: OVCAR-8
UACC-257 = tested on: UACC-257
SF-539 = tested on: SF-539
HT-29 = tested on: HT-29
HOP-92 = tested on: HOP-92
SW-620 = tested on: SW-620
A549 = tested on: A549
EKVX = tested on: EKVX
KM12 = tested on: KM12
ACHN = tested on: ACHN
LOX IMVI = tested on: LOX IMVI
RXF 393 = tested on: RXF 393
SK-MEL-2 = tested on: SK-MEL-2
SF-268 = tested on: SF-268
OVCAR-4 = tested on: OVCAR-4
Malme-3M = tested on: Malme-3M
NCI-H460 = tested on: NCI-H460
HCT-15 = tested on: HCT-15
MDA-MB-435 = tested on: MDA-MB-435

Measured: GI50

Cc1cccc(C2=NC(C)(C)C(C)(C)N=C2c2cccc(C)n2)n1
> 100 µM: HCT-15
inactive: OVCAR-8 > 100 µM | UACC-257 45.4 µM | SF-539 > 100 µM | HT-29 26.1 µM | HOP-92 > 100 µM | SW-620 > 100 µM | A549 > 100 µM | EKVX > 100 µM | KM12 > 100 µM | ACHN > 100 µM | LOX IMVI > 100 µM | RXF 393 > 100 µM | SK-MEL-2 > 100 µM | SF-268 > 100 µM | OVCAR-4 > 100 µM | Malme-3M > 100 µM | NCI-H460 > 100 µM

OC1(C(Sc2cc(C(F)(F)F)cc(C(F)(F)F)c2)Sc2cc(C(F)(F)F)cc(C(F)(F)F)c2)C=CCCC1 (stereo not drawn)
1.37 µM: HCT-15
inactive: OVCAR-8 2.12 µM | UACC-257 1.2 µM | MDA-MB-435 1.86 µM | HOP-92 2.83 µM | SW-620 1.91 µM | A549 1.63 µM | EKVX 2.22 µM | KM12 1.73 µM | ACHN 1.85 µM | LOX IMVI 1.66 µM | RXF 393 1.75 µM | SF-268 2.54 µM | OVCAR-4 1.74 µM | Malme-3M 2.77 µM | NCI-H460 1.33 µM
active: HT-29 1.08 µM

O=C(Nc1ccc(Cl)cc1)Oc1ccc(C(=S)Nc2ccc(Br)cc2)cc1
active: LOX IMVI 0.334 µM
inactive: OVCAR-8 6.01 µM | UACC-257 15.5 µM | SF-539 15.5 µM | MDA-MB-435 12.4 µM | HT-29 2.19 µM | SW-620 20.3 µM | A549 10 µM | EKVX 2.49 µM | KM12 2.55 µM | ACHN 12.2 µM | SK-MEL-2 6.62 µM | SF-268 30.5 µM | OVCAR-4 7.4 µM | Malme-3M 20.2 µM | NCI-H460 4.85 µM
11 µM: HCT-15

CCCCCCCCCCCCCP(=O)(O)O
> 100 µM: HCT-15
inactive: OVCAR-8 > 100 µM | UACC-257 > 100 µM | SF-539 > 100 µM | HT-29 > 100 µM | HOP-92 > 100 µM | SW-620 > 100 µM | A549 > 100 µM | EKVX > 100 µM | KM12 > 100 µM | ACHN > 100 µM | LOX IMVI > 100 µM | RXF 393 35.5 µM | SK-MEL-2 > 100 µM | SF-268 > 100 µM | OVCAR-4 > 100 µM | Malme-3M > 100 µM | NCI-H460 > 100 µM

COc1ccc2c(c1)CC1c3c(ccc(OC)c3O)CC2N1C (stereo not drawn)
34.4 µM: HCT-15
inactive: OVCAR-8 34.2 µM | UACC-257 23.1 µM | SF-539 24.7 µM | HT-29 22.9 µM | HOP-92 28.1 µM | SW-620 21.5 µM | A549 57.3 µM | EKVX 50.9 µM | KM12 28.2 µM | ACHN 51.5 µM | LOX IMVI 23.9 µM | RXF 393 22.6 µM | SK-MEL-2 19.2 µM | SF-268 54.2 µM | OVCAR-4 29.4 µM | Malme-3M 15.7 µM | NCI-H460 19.3 µM

CCN1CCN(c2nc3ccccc3nc2C(=O)c2ccc(OC)cc2)CC1
49.4 µM: HCT-15
inactive: OVCAR-8 60.7 µM | UACC-257 16.5 µM | SF-539 26.4 µM | MDA-MB-435 44.3 µM | HT-29 23.9 µM | HOP-92 18.3 µM | SW-620 30.3 µM | A549 23.8 µM | EKVX 47.1 µM | KM12 24.8 µM | ACHN 27.8 µM | LOX IMVI 24.8 µM | RXF 393 12.4 µM | SK-MEL-2 41 µM | SF-268 29.4 µM | OVCAR-4 57.5 µM | Malme-3M 16.5 µM | NCI-H460 21.5 µM

N#CC(C(=N/NC(N)=S)/C(=N/NC(N)=S)C(C#N)c1ccc(Cl)cc1)c1ccc(Cl)cc1 (stereo not drawn)
inactive: OVCAR-8 53.8 µM | UACC-257 > 100 µM | SF-539 > 100 µM | HT-29 > 100 µM | HOP-92 > 100 µM | SW-620 41.7 µM | A549 > 100 µM | EKVX > 100 µM | KM12 > 100 µM | ACHN > 100 µM | LOX IMVI > 100 µM | RXF 393 47.3 µM | SK-MEL-2 > 100 µM | SF-268 > 100 µM | OVCAR-4 > 100 µM | Malme-3M > 100 µM | NCI-H460 > 100 µM
83.8 µM: HCT-15

CCOC(=O)c1cc(=O)n(C)c(=O)n1C
> 100 µM: HCT-15
inactive: OVCAR-8 > 100 µM | UACC-257 > 100 µM | SF-539 > 100 µM | HT-29 > 100 µM | HOP-92 > 100 µM | SW-620 > 100 µM | A549 > 100 µM | EKVX > 100 µM | KM12 > 100 µM | ACHN > 100 µM | LOX IMVI > 100 µM | RXF 393 > 100 µM | SK-MEL-2 > 100 µM | SF-268 > 100 µM | OVCAR-4 > 100 µM | Malme-3M > 100 µM | NCI-H460 > 100 µM
